Measurements reported in ChEMBL document CHEMBL3885881, “DrugMatrix”.

Species: Rattus norvegicus
Assay: DrugMatrix - Regimen: Daily Repeat
Format: toxicity, organism-based, Sprague-Dawley
Set-up: regimen Daily Repeat, gender Male, age 6-8 weeks
Details: in vivo, po, 25 mg/kg, route oral GAVAGE, dose level Low, […]; for ABSOLUTE BASOPHIL / ABSOLUTE EOSINOPHIL / ABSOLUTE LYMPHOCYTE / ABSOLUTE MONOCYTE / ABSOLUTE SEGMENTED NEUTROPHIL / BASOPHIL / EOSINOPHIL / ERYTHROCYTE COUNT / HEMATOCRIT / HEMOGLOBIN / LEUKOCYTE COUNT / LYMPHOCYTE / MEAN CORPUSCULAR HEMOGLOBIN / MEAN CORPUSCULAR HEMOGLOBIN CONCENTRATION / MEAN CORPUSCULAR VOLUME / MONOCYTE / NEUTROPHIL / NUCLEATED RED BLOOD CELLS / PLATELET COUNT: tissue Blood; for ALANINE AMINOTRANSFERASE / ALBUMIN / ALKALINE PHOSPHATASE / ASPARTATE AMINOTRANSFERASE / BLOOD UREA NITROGEN / CARBON DIOXIDE / CHLORIDE / CHOLESTEROL / CREATINE PHOSPHOKINASE / CREATININE / GLUCOSE / LACTATE DEHYDROGENASE / LIPASE / PHOSPHORUS / POTASSIUM / SODIUM / TOTAL BILIRUBIN / TOTAL PROTEIN / URIC ACID: tissue Plasma

## O=c1ccc2ccccc2o1 [COUMARIN]
72 h, time 3 day
  ABSOLUTE BASOPHIL: 0 CELLS/uL
  ABSOLUTE EOSINOPHIL: 0 CELLS/uL
  ABSOLUTE LYMPHOCYTE: 13415.67 CELLS/uL
  ABSOLUTE MONOCYTE: 244.67 CELLS/uL
  ABSOLUTE SEGMENTED NEUTROPHIL: 973 CELLS/uL
  BASOPHIL: 0%
  EOSINOPHIL: 0%
  ERYTHROCYTE COUNT: 5.76 x10E6/uL
  HEMATOCRIT: 36.97%
  HEMOGLOBIN: 14.6 G/DL
  LEUKOCYTE COUNT: 14.63 x10E3/uL
  LYMPHOCYTE: 92%
  MEAN CORPUSCULAR HEMOGLOBIN: 25.4 pg
  MEAN CORPUSCULAR HEMOGLOBIN CONCENTRATION: 39.5 G/DL
  MEAN CORPUSCULAR VOLUME: 64.27 fL
  MONOCYTE: 1.67%
  NEUTROPHIL: 6.33%
  NUCLEATED RED BLOOD CELLS: 0 /100WBC
  PLATELET COUNT: 1015 x10E3/uL
  ALANINE AMINOTRANSFERASE: 75 u/L
  ALBUMIN: 4.13 G/DL
  ALKALINE PHOSPHATASE: 469.67 u/L
  ASPARTATE AMINOTRANSFERASE: 106.33 u/L
  BLOOD UREA NITROGEN: 10.67 mg/dL
  CARBON DIOXIDE: 33.67 mmol/L
  CHLORIDE: 101.67 MEQ/L
  CHOLESTEROL: 71.67 mg/dL
  CREATINE PHOSPHOKINASE: 272.67 u/L
  CREATININE: 0.12 mg/dL
  GLUCOSE: 148 mg/dL
  LACTATE DEHYDROGENASE: 117 u/L
  LIPASE: 13.67 u/L
  PHOSPHORUS: 11.83 mg/dL
  POTASSIUM: 6.75 MEQ/L
  SODIUM: 146.1 MEQ/L
  TOTAL BILIRUBIN: 0.13 mg/dL
  TOTAL PROTEIN: 5.1 G/DL
  URIC ACID: 1.27 mg/dL
120 h, time 5 day
  ABSOLUTE BASOPHIL: 0 CELLS/uL
  ABSOLUTE EOSINOPHIL: 0 CELLS/uL
  ABSOLUTE LYMPHOCYTE: 11975.33 CELLS/uL
  ABSOLUTE MONOCYTE: 0 CELLS/uL
  ABSOLUTE SEGMENTED NEUTROPHIL: 1091.33 CELLS/uL
  BASOPHIL: 0%
  EOSINOPHIL: 0%
  ERYTHROCYTE COUNT: 5.78 x10E6/uL
  HEMATOCRIT: 36.27%
  HEMOGLOBIN: 14.1 G/DL
  LEUKOCYTE COUNT: 13.07 x10E3/uL
  LYMPHOCYTE: 91.33%
  MEAN CORPUSCULAR HEMOGLOBIN: 24.4 pg
  MEAN CORPUSCULAR HEMOGLOBIN CONCENTRATION: 38.9 G/DL
  MEAN CORPUSCULAR VOLUME: 62.7 fL
  MONOCYTE: 0%
  NEUTROPHIL: 8.67%
  NUCLEATED RED BLOOD CELLS: 0 /100WBC
  PLATELET COUNT: 1251 x10E3/uL
  ALANINE AMINOTRANSFERASE: 69 u/L
  ALBUMIN: 4.17 G/DL
  ALKALINE PHOSPHATASE: 466 u/L
  ASPARTATE AMINOTRANSFERASE: 95.67 u/L
  BLOOD UREA NITROGEN: 13.33 mg/dL
  CARBON DIOXIDE: 27 mmol/L
  CHLORIDE: 102.67 MEQ/L
  CHOLESTEROL: 64.33 mg/dL
  CREATINE PHOSPHOKINASE: 297 u/L
  CREATININE: 0.17 mg/dL
  GLUCOSE: 157.33 mg/dL
  LACTATE DEHYDROGENASE: 402.33 u/L
  LIPASE: 12.33 u/L
  PHOSPHORUS: 12 mg/dL
  POTASSIUM: 6.55 MEQ/L
  SODIUM: 143.47 MEQ/L
  TOTAL BILIRUBIN: 0.23 mg/dL
  TOTAL PROTEIN: 5.73 G/DL
  URIC ACID: 1.8 mg/dL
